Structures are written as SMILES.

The target of the assay is Acetylcholinesterase (Homo sapiens, UniProt P22303). The experiment in a line: In vitro inhibitory activity against Acetylcholinesterase (AChE).
Chain of Acetylcholinesterase (P22303 whole entry): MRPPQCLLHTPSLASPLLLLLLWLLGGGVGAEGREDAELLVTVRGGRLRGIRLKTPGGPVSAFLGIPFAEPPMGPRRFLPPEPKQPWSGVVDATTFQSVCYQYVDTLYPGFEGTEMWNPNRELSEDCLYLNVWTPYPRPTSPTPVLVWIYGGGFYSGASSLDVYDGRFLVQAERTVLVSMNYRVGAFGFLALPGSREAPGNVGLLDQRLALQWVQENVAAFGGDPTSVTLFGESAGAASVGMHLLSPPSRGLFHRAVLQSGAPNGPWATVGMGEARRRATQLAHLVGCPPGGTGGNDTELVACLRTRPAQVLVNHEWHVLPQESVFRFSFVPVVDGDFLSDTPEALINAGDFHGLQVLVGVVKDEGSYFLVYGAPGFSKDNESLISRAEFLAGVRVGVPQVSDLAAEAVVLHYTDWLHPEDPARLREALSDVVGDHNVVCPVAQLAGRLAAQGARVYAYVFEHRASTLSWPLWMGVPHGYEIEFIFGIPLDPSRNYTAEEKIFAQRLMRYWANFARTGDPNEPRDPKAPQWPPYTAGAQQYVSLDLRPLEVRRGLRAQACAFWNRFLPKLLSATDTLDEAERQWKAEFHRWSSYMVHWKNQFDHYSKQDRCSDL
Broadly, the IC50 is the concentration that gives 50% inhibition. A low value points to higher potency. For the molecule `NC12CC(C(F)(F)F)=CC(Cc3nc(O)ccc31)/C2=C\C(F)(F)F` (stereo not drawn), the IC50 worked out at 3000 nM.

`C/C=C1\C2C=C(C(F)(F)F)CC1(N)c1ccc(=O)[nH]c1C2` (stereo not drawn) displayed an IC50 of 400 nM.

For `CC1=CC2Cc3nc(O)ccc3C(N)(C1)/C2=C/C(F)(F)F` (stereo not drawn), half-maximal inhibition (IC50) required 2000 nM.

For the origin of these results see ChEMBL document CHEMBL1129143, “Synthesis and acetylcholinesterase inhibitory activity of fluorinated analogues of huperzine A” (Bioorg Med Chem Lett, 1996).
